Results as given in article PMC7034072, “Discovery of small molecule inhibitors of Leishmania braziliensis Hsp90 chaperone” (Journal of Enzyme Inhibition and Medicinal Chemistry, 2020).

How the values were obtained:
[1] = tested on: promastigote forms of L. braziliensis; assay: In vitro IC50 determination (leishmanicidal activity, MTT/PMS); assay type: cell-based; details: promastigotes, 72 h, RT
Procedure: Amphotericin 100 μM/well and 0.5% DMSO were used as positive and negative control, respectively. The plates were incubated at RT for 72 h. After this, the viability of the promastigotes was verified by MTT/PMS colorimetric assay, as described above. In vitro leishmanicidal activity, expressed as IC50, was determined using GraphPad Prism 5 software according to the following equation: (2) y= Amin + Amax−Amin/1+10^logIC50 −x*Hillslope where Amin and Amax are, respectively, the minimum and maximum activities obtained, x is the ligand concentration and Hill Slope is the parameter that describes the steepness of the curve.
The selectivity index parameter was obtained by the ratio of compound IC50 against mammalian cells and compound IC50 against promastigote cells.

[2] = tested on: promastigote form of L. braziliensis; assay: Cell viability assay (MTT/PMS), single concentration; assay type: cell-based; details: L. braziliensis promastigotes; for Cell viability / reduced cell viability: 200 μM/well; for Cell viability: MTT/PMS, Yes = leishmanicidal activity; for reduced cell viability: after 72 h
Procedure: The leishmanicidal activity of the compounds was tested in vitro against the promastigote form of L. braziliensis applying 200 μM/well, (with a total of 0.5% DMSO) into 90 μL of culture. The concentration of L. braziliensis (MHOM/BR/1973/M2269) was adjusted to 10^7 cells/mL. Amphotericin (100 μM/well) was used as positive control, and 0.5% DMSO as negative control.
The plates were incubated at room temperature (RT) for 72 h. After this period, the viability of the promastigotes was verified via MTT (3–(4, 5-Dimethylthiazol-2-yl)-2, 5-Diphenyltetrazolium Bromide) colorimetric assay. MTT/PMS 11.1 μL/well solution (MTT = 5 mg/mL; Phenazine methosulfate-PMS = 0.22 mg/mL) was added, and the plate was incubated at RT for 4 h, at 150 RPM, protected from light. Formazan crystals were then solubilised by adding 100 μL/well of a solubilisation solution containing 7% SDS, 10 mM HCl and 30% DMSO. The mixture was incubated at RT for 90 min at 150 RPM protected from light. Wells containing the medium and the compounds or DMSO without MTT were used as blank controls. The absorbance was quantified in a plate reader (Biotek Synergy HT) at 570 nm.
The cell viability percentages were calculated by the following equation: (1) Cell viability %= AT−AB/AU−AB ×100 where AT was an averaged absorbance from treated samples, AB blank absorbance and AU was an averaged absorbance from negative control.

[3] = tested on: Balb-c 3T3 clone A31 mouse fibroblasts; assay: Cytotoxic assay (MTT); assay type: cell-based; details: Balb-c 3T3 mouse fibroblasts, 72 h, 37 °C
Procedure: Compounds cytotoxicity was evaluated in 100 μL of Balb-c 3T3 cone A31 mouse fibroblasts (10^5 cells/mL) into a 96-well plate, incubated for 24 h at 37 °C to become adhered. After this period, the medium was washed and 100 μL of each compound was added to the culture medium (concentration ranging from 1 to 200 μM/well, with a total of 0.5% DMSO) in quadruplicate. Rapamycin was used as a positive control, and 0.5% DMSO was used as negative control. The plates were incubated for 72 h at 37 °C. After this, the viability of Balb-c 3T3 cells was evaluated by MTT colorimetric assay, as described previously.

[4] = tested on: LbHsp90 and LbHsp90N recombinant proteins; assay: Differential scanning fluorimetry (thermal shift assay); assay type: binding, L. braziliensis; details: DSF; for Thermal shift: inclusion criterion Tm variation greater or equal to ± 2 °C in LbHsp90 or LbHsp90N, Yes/No
Procedure: The interaction of Hsp90 proteins with different compounds was monitored through the melting temperature (Tm) of each protein in the presence of a fixed concentration of the target compound by differential scanning fluorimetry (DSF) also referred as thermal shift assay. A final concentration of 10 µM of dimeric LbHsp90 and 20 µM of monomeric LbHsp90N in 40 mM Hepes buffer (pH 7.5) containing 100 mM KCl were used. The DMSO concentration in each sample was fixed at 2.5% (v/v). Prior to the readings, the samples were incubated for 30 min on ice. The fluorophore Sypro Orange (Life Technologies) was used as fluorescent probe. The experiments were performed at a thermocycler CFX96 Touch Real Time PCR Detection System (BioRad) and the data were analysed using the CFX Manager software (BioRad). As positive controls, 100 µM of GA and Radicicol (RDC) were used.

hHsp90β [5] = molecular target: T1, hHsp90β (Homo sapiens, UniProt P08238); assay: ATPase activity inhibition assay (EnzChek Pi quantification); assay type: biochemical; details: 50 μM compound, 2 μM enzyme, 2.5 mM ATP
T1 construct: made in house; host or cells: Escherichia coli BL21(DE3)
T1 sequence (P08238 whole entry): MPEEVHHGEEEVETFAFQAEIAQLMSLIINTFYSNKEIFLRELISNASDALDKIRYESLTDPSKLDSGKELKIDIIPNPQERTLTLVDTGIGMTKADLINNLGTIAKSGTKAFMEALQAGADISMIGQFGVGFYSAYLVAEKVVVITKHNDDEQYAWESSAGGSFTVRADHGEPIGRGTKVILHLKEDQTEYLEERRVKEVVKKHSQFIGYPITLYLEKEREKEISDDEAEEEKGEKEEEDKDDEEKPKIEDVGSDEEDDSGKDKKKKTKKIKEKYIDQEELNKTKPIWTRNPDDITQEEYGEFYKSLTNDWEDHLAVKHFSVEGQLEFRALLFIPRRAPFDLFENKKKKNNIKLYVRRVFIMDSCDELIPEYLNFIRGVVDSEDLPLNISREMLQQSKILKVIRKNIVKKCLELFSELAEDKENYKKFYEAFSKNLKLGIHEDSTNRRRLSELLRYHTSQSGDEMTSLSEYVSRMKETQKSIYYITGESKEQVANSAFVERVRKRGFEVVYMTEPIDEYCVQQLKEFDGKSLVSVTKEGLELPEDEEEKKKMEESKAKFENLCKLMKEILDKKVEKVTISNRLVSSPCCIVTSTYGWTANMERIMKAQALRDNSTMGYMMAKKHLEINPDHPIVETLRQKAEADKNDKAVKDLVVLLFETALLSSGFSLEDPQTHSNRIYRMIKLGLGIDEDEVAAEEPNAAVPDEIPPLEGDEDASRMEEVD
Procedure: (§1) The ATPase activity of LbHsp90 and hHsp90β was evaluated spectrophotometrically through inorganic phosphate (Pi) quantification following ATP hydrolysis, by the EnzChek™ assay kit (Invitrogen®) as previous described[31]^,[34]. Briefly, a 2 µM solution of LbHsp90 and hHsp90β enzymes was prepared in 150 mM NaCl, 5 mM MgCl2 and 20 mM Tris-HCl, pH 7.5, and incubated with ATP (concentration range 0–5 mM) for 60 min at 37 °C. Then, the chromogenic substrate 2-amino-6-mercapto 7-methyl purine riboside (MESG) and the purine nucleoside phosphorylase (PNP) were added and the resulting reaction mixture was incubated for 30 min at 37 °C. The assays were performed in a 96-well plate and kinetic parameters determined by Michaelis–Menten fitting using GraphPad Prism 6 software.
(§2) Initial screenings were performed using 50 μM compound concentration in a reaction mixture consisting of 2 μM enzyme and 2.5 mM ATP. After 1 h incubation at 37 °C, MESG and PNP were added. The amount of Pi was estimated after 30 min incubation at 37 °C. […] A compound concentration ranging from 1 to 75 μM was included in the reaction mixture and Pi quantification performed as previously described (measurements were performed in triplicate). IC50 values were determined by non-linear regression data fitting (using GraphPad Prism 6 software).

hHsp90βN = molecular target: T2, hHsp90βN (Homo sapiens, UniProt P08238); assay: Tryptophan fluorescence quenching interaction assay; assay type: binding; details: N-terminal domain; for Kd: read-out: KDapp hHsp90βN
T2 construct: N-terminal domain construct (Hsp90βN – residues 1–223); His-tag (cleaved yes); made in house; host or cells: Escherichia coli BL21(DE3)
T2 sequence (P08238 1-223): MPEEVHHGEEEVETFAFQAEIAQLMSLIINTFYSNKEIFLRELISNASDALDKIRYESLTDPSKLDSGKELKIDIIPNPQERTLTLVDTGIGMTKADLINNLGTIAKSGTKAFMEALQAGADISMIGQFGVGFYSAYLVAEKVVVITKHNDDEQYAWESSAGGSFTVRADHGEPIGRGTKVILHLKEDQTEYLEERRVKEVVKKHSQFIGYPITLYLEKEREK
Procedure: (§3) Two µM of protein in 40 mM Hepes buffer (pH 7.5), 100 mM KCl, was incubated for 30 min on ice with increasing concentrations of the compounds diluted in DMSO. […] The samples were excited at 280 nm and the emission was collected in the 300–400 nm range, in a 1.0 × 0.2 cm optical path cuvette, on an F-4500 Fluorescence Spectrophotometer (Hitachi). The fluorescence quenching was analysed at the maximum emission wavelength in the absence of ligand. The determination of the apparent dissociation constant (KDapp) was performed by fitting the fluorescence values obtained for each compound concentration according to a dose-response model through the Equation (3): (3) y = Fmin + (Fmax−Fmin)/(1+10^(logKD− [ligand])) where Fmin and Fmax are the minimum and maximum fluorescence intensity and [ligand] is the compound concentration used in the assay, according to the GraphPad Prism 5 software. The fluorescence intensities were corrected by inner filter effects as previously described.

LbHsp90 [6] = molecular target: T3, LbHsp90 (Leishmania braziliensis, UniProt A4HL70); assay: as above; assay type: binding; details: for Kd: full-length, tryptophan fluorescence quenching, read-out: KDapp LbHsp90
T3 sequence (A4HL70 entry or part of it): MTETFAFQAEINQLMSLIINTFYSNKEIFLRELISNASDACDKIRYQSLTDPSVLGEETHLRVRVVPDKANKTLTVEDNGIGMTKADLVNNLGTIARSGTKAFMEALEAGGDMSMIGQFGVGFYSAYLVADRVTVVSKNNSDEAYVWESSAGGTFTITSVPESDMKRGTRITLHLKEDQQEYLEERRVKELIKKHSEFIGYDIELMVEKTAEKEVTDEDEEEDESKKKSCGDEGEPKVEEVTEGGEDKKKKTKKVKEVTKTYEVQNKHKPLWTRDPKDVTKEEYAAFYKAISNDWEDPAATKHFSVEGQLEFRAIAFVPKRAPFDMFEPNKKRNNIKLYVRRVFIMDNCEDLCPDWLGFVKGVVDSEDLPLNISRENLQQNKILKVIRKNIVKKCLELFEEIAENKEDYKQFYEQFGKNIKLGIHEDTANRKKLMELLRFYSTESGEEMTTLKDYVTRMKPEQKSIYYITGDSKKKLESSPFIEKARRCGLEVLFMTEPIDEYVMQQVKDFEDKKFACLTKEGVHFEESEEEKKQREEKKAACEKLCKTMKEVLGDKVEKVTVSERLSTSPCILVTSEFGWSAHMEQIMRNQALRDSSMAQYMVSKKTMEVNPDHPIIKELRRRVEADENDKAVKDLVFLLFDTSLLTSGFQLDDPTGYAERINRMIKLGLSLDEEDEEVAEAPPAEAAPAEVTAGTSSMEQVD
Procedure: as §3

hHsp90β [7] = molecular target: T1, hHsp90β; assay: as above; assay type: binding; details: for Kd: read-out: KDapp hHsp90β
Procedure: as §3

LbHsp90 [8] = molecular target: T3, LbHsp90; assay: ATPase activity inhibition assay (EnzChek Pi quantification); assay type: biochemical; details: compound 1 to 75 μM, triplicate; read-out: IC50 LbHsp90 ATPase activity inhibition
Procedure: as §1
as §2, with “The inhibitory activity against LbHsp90 and hHsp90β of compounds showing interaction in DSF assays (namely Glb08, Glb15, Gl23, Glb25 and Glb27) was determined using spectrophotometric ATPase activity assays as described above. Initial” for “Initial”, “°C. GA was used as reference compound, reporting 100% ATPase activity inhibition (at 50 μM).” for “°C.”

[9] = full-length, tryptophan fluorescence quenching

SMILES	Cell viability ([2]; 72 h)	Thermal shift [4]	further results
N=C(N)NCc1cn(-c2ccccc2)nc1-c1ccccc1 [Glb14]	Yes	No	IC50 [1]: 30 ± 1 µM; reduced cell viability [2]: more than 60%; IC50 [3]: > 200 µM
C[C@@H]1[C@H](O)[C@@H](C)/C=C/C=C/C=C/C=C/C=C/C=C/C=C/[C@H](O[C@@H]2O[C@H](C)[C@@H](O)[C@H](N)[C@@H]2O)C[C@@H]2O[C@](O)(C[C@@H](O)C[C@@H](O)[C@H](O)CC[C@@H](O)C[C@@H](O)CC(=O)O[C@H]1C)C[C@H](O)[C@H]2C(=O)O [Amphotericin, reference compound]			killing activity ([2]; positive control, 100 μM/well, 72 h): more than 95%
CC(C)(C)c1cc(CSC(=N)N)cc(C(C)(C)C)c1O [Glb11]	No	positive outcomes and Yes	
COc1ccc(C2(CNC(=N)N)CC2)cc1 [Glb20]	No	No	
Nc1nc(Cc2ccccc2)n[nH]1 [Glb12]	No	No	
C[C@@H]1C[C@H]2O[C@@H]2/C=C\C=C\C(=O)Cc2c(Cl)c(O)cc(O)c2C(=O)O1 [RDC, Radicicol, reference compound]			ΔTm ([4]; 100 µM positive controls, protein stabilisation): > 2.0 °C
N=C(N)SCc1cccc(OCC(N)=O)c1 [Glb19]	No	No	
CCC(=O)NCc1cccc(-c2ccnc3[nH]ccc23)c1 [Glb02]	No	positive outcomes and Yes	
NC(=O)c1ccc(-c2nccc3occc23)cc1 [Glb01]	No	No	
N=C(N)SCc1ccc(C(=O)O)cc1 [Glb22]	No	No	
N=C(N)NN=Cc1ccc2cccc(OCc3ccccc3)c2n1 [Glb27]	Yes	positive outcomes and Yes	percentage inhibition of hHsp90β ATPase activity (hHsp90β [5]): lower than 60%; IC50 [1]: 11 ± 1 µM; reduced cell viability [2]: more than 60%; Kd (hHsp90βN): 6 ± 2 µM; Kd (LbHsp90 [6]): 7 ± 1 µM; Kd (hHsp90β [7]; [9]): 5 ± 4 µM; IC50 [3]: 13 ± 2 µM
N=C(N)NCc1nn(Cc2ccccc2)c(=O)c2ccccc12 [Glb28]		No	
N=C(N)NCc1ccc(Oc2ccc(F)cc2)cc1 [Glb16]	Yes	positive outcomes and Yes	IC50 [1]: 12 ± 2 µM; reduced cell viability [2]: more than 60%; IC50 [3]: 23 ± 1 µM
NC(=O)c1cn(Cc2cccc3cccnc23)nc1-c1ccccc1 [Glb07]	No	No	
Cc1cc(CSC(=N)N)cc(C(C)(C)C)n1 [Glb26]	No	No	
N=C(N)Nc1nc(-c2ccccc2)c(CC(=O)O)s1 [Glb21]	No	No	
N=C(N)SCc1nc2ccccc2c(=O)n1-c1ccccc1 [Glb23]	Yes	No	percentage inhibition of hHsp90β ATPase activity (hHsp90β [5]): lower than 60%; IC50 [1]: > 100 µM; reduced cell viability [2]: more than 60%; IC50 (LbHsp90 [8]): 35 ± 1 µM; Kd (hHsp90βN): 20 ± 30 µM; Kd (LbHsp90 [6]): 26 ± 7 µM; Kd (hHsp90β [7]; [9]): 21 ± 9 µM; IC50 [3]: 55 ± 1 µM
CS(=O)(=O)N1CCN(c2ccc(C(N)=O)cc2)CC1 [Glb06]	No	No	
Cn1cc(-c2ccc(F)cc2)c2nc[nH]c(=O)c21 [Glb13]	No	No	
NC(=O)Nc1cccc(C(=O)OCc2ccccc2C(F)(F)F)c1 [Glb04]	No	No	
N=C(N)SCc1cc(=O)oc2cc3c(cc12)CCC3 [Glb18]	No	No	
Cn1c(CSC(=N)N)c(Cl)c(=O)n1-c1ccccc1 [Glb24]	No	No	
NC(=O)c1ccc(C(=O)N2CCc3ccccc32)cc1 [Glb05]	No	No	
Cc1cccc(Oc2ccccc2CNC(=N)N)c1 [Glb17]	Yes	No	IC50 [1]: 4 ± 1 µM; reduced cell viability [2]: more than 60%; KDapp hHsp90βN (hHsp90βN): Ambiguous^#; tryptophan fluorescence quenching (qualitative) (LbHsp90 [6]; LbHsp90 constructions): did not induce tryptophan fluorescence quenching; KDapp hHsp90β (hHsp90β [7]; [9]): Ambiguous^#; tryptophan fluorescence quenching (qualitative) (hHsp90β [7]; hHsp90β constructions): did not induce tryptophan fluorescence quenching; IC50 [3]: 58 ± 1 µM
